Reference: PubChem BioAssay (NCI)
Several values for one entry are separate records, joined by “and”; a condition that tells them apart may be missing. Identical values can stand only once.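 Where inhibition never reached the appropriate level, the endpoint shown equals the highest concentration tested. Otherwise, values were interpolated linearly from a five-concentration, 48-hour dose response in 96-well plates. GI50 is the concentration that inhibits growth by half. TGI: total growth inhibition.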

Tests used:
Experiment in all cases: NCI tumour cell line growth inhibition, 48 h
ACHN renal = tested on: ACHN renal
HOP-62 NSCLC = tested on: HOP-62 NSCLC
KM12 colon = tested on: KM12 colon
LOX IMVI melanoma = tested on: LOX IMVI melanoma
M14 melanoma = tested on: M14 melanoma
MALME-3M melanoma = tested on: MALME-3M melanoma
OVCAR-3 ovarian = tested on: OVCAR-3 ovarian
OVCAR-8 ovarian = tested on: OVCAR-8 ovarian
SK-MEL-5 melanoma = tested on: SK-MEL-5 melanoma
UO-31 renal = tested on: UO-31 renal

Row | Structure (SMILES) | GI50 (ACHN renal) | TGI (ACHN renal) | GI50 (HOP-62 NSCLC) | TGI (HOP-62 NSCLC) | GI50 (KM12 colon) | TGI (KM12 colon) | GI50 (LOX IMVI melanoma) | TGI (LOX IMVI melanoma) | GI50 (M14 melanoma) | TGI (M14 melanoma) | GI50 (MALME-3M melanoma) | TGI (MALME-3M melanoma) | GI50 (OVCAR-3 ovarian) | TGI (OVCAR-3 ovarian) | GI50 (OVCAR-8 ovarian) | TGI (OVCAR-8 ovarian) | GI50 (SK-MEL-5 melanoma) | TGI (SK-MEL-5 melanoma) | GI50 (UO-31 renal) | TGI (UO-31 renal)
1 | C=CC(=O)Nc1cccc(Nc2nc(Nc3ccc(N4CCN(C(C)=O)CC4)cc3OC)ncc2C(F)(F)F)c1 | 2.96 µM and 1.84 µM | > 30.3 µM | 6.52 µM and 6.2 µM | > 10 µM and 25.9 µM | 7.48 µM and 5.58 µM | > 10 µM and 38.6 µM | 2.71 µM and 3.04 µM | > 10 µM and 14.2 µM | 3.67 µM and 2.73 µM | > 100 µM | 8.88 µM and 3.09 µM | > 10 µM and 16.4 µM | 3.69 µM and 1.07 µM | > 30.3 µM | 4.05 µM and 3.51 µM | > 10 µM and 98.2 µM | 4.12 µM and 4.3 µM | > 10 µM and 17.9 µM | 2.05 µM and 1.76 µM | > 68.6 µM
2 | CCC(=O)Oc1ccc(/C=N/NC(N)=S)nc1 | 1.01 µM | 21 µM | 5.53 µM | 82.3 µM | 4.69 µM | > 100 µM | 2.91 µM | > 100 µM | 2.01 µM | 5.59 µM | 6.86 µM | > 100 µM | 3.37 µM | > 100 µM | 3.51 µM | > 100 µM | 3.01 µM | 77.2 µM | 3.48 µM | 22.8 µM
3 | CC(=O)N1CCN(C=S)CC1 |  | > 100 µM |  | > 100 µM |  | > 100 µM |  | > 100 µM |  | > 100 µM |  | > 100 µM |  | > 100 µM |  | > 100 µM |  | > 100 µM |  | > 100 µM
4 | ClCCCN1CCCCC1CCl (stereo unspecified) |  | > 100 µM |  | > 100 µM |  | > 100 µM |  | > 100 µM |  | > 100 µM |  | > 100 µM |  | > 100 µM |  | > 100 µM |  | > 100 µM |  | > 100 µM
5 | CCCNC(=O)Nc1ccc2c(c1)Cc1cc(N(CCCl)CCCl)ccc1-2 |  | 33.8 µM |  | > 100 µM |  | 56.5 µM |  | > 100 µM |  | > 100 µM |  | > 100 µM |  | 54.4 µM |  | > 100 µM |  | 33 µM |  | 82.2 µM
6 | Cn1c(=O)c2[nH]cnc2n(C)c1=O.[CH2-]C(Cc1cccc2cc(C(=O)O)c(=O)oc12)OC.[Hg+2].[OH-] (stereo unspecified) | 16.3 µM | 29.9 µM | 19.2 µM | 41.8 µM | 17.3 µM | 32 µM | 16 µM | 30.3 µM | 16.9 µM | 30.7 µM | 8.67 µM | 20.4 µM | 17.3 µM | 32.8 µM | 18 µM | 32 µM | 17.4 µM | 31.2 µM | 16.1 µM | 29.8 µM
7 | C[C@H](CCCOS(C)(=O)=O)[C@H]1CC[C@H]2[C@@H]3CC[C@@H]4C[C@H](OS(C)(=O)=O)CC[C@]4(C)[C@H]3CC[C@]12C | 395 µM |  | 493 µM |  | 1230 µM | > 2500 µM | 483 µM | 1270 µM | 706 µM | > 2500 µM | 994 µM |  | 2170 µM |  | 582 µM |  | 1110 µM | > 2500 µM | > 2500 µM | > 2500 µM
8 | O=C1CC2OCC=C3CN4CCC56c7ccccc7N1C5C2C3CC46 (stereo unspecified) (tested in a mixture with another compound) | > 50 µg/mL | > 50 µg/mL | > 50 µg/mL | > 50 µg/mL | > 50 µg/mL | > 50 µg/mL | > 50 µg/mL | > 50 µg/mL | > 50 µg/mL | > 50 µg/mL | > 50 µg/mL | > 50 µg/mL | > 50 µg/mL | > 50 µg/mL | > 50 µg/mL | > 50 µg/mL | > 50 µg/mL | > 50 µg/mL | > 50 µg/mL | > 50 µg/mL
9 | COc1ccc2c(c1)NC(=O)CN2c1nc(C)nc2ccccc12 | 0.000926 µM | > 100 µM | 0.00069 µM | > 100 µM | 0.000353 µM | > 100 µM | 0.000526 µM | > 100 µM | 0.000336 µM | > 100 µM |  | > 100 µM | 0.000266 µM | 0.000746 µM | 0.000524 µM | > 100 µM | 0.0004 µM | 0.00186 µM |  | > 100 µM
10 | O=C(O)CSc1nnc2c3ccccc3c3ccccc3c2n1 |  | > 100 µM |  | > 100 µM |  | > 100 µM |  | > 100 µM |  | > 100 µM |  | > 100 µM |  | > 100 µM |  | > 100 µM |  | > 100 µM |  | > 100 µM
11 | CN(C)c1ccc(/C=c2\sc3nnc(Cc4ccccc4)n3c2=O)cc1 | > 10 µM | > 100 µM | > 100 µM | > 100 µM | > 100 µM | > 100 µM |  | > 10 µM | > 100 µM | > 100 µM | > 100 µM | > 100 µM | > 100 µM | > 100 µM | > 100 µM | > 100 µM | > 100 µM | > 100 µM |  | > 100 µM
12 | NCCNc1ncnc2ccc(Cl)cc12 |  | > 100 µM |  | > 100 µM |  | > 100 µM |  | > 100 µM |  | > 100 µM |  | > 100 µM |  | > 100 µM |  | > 100 µM |  | > 100 µM |  | > 100 µM
13 | COc1ccc([Se]c2ccc(OC)cc2)cc1 |  | > 100 µM |  | > 100 µM |  | > 100 µM |  | > 100 µM |  | > 100 µM |  | > 100 µM |  | > 100 µM |  | > 100 µM |  | > 100 µM |  | 9.8 µM
14 | COc1cc2c3c(n(CCCN4CCN(CCO)CC4)c(=O)c2cc1OC)-c1cc2c(cc1C3=O)OCO2 | 8.54 µM | > 44.4 µM | 10.1 µM | 54 µM | 9.33 µM | 22.7 µM | 3.72 µM | 8.77 µM | 6.23 µM | 19.5 µM | 15.3 µM | 31 µM | 13.2 µM | 28.3 µM | 7.62 µM | 28.3 µM | 13 µM | 26 µM | > 91.5 µM | > 100 µM
15 | Nc1ncnc2c1ncn2C1OC(C(=O)OCCO)C(O)C1O (stereo unspecified) |  | > 100 µM |  | > 100 µM |  | > 100 µM |  | > 100 µM |  | > 100 µM |  | > 100 µM |  | > 100 µM |  | > 100 µM |  | > 100 µM |  | > 100 µM
